Experiments:
Test in all cases: relative viability (nuclei count vs DMSO), 5 days (fraction); higher = more cells survive
A549 = tested on: A549
Method in brief: (§1)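 Cells from lung cancer lines were seeded into 1536-well plates and, one day later, dosed by pin tool. Treatments were either a single drug or a fixed dose of an anchor drug with five library-drug doses (not always all listed) in √10 steps. After 5 days, nuclei were stained in a one-step fixation (final 0.05% Triton X-100, 1% formaldehyde, 1 ug/ml Hoechst) and counted on 4× images, and relative viability is the treated-to-vehicle nuclei ratio, as the median of duplicate plates.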

ABC-1 = tested on: ABC-1
Method in brief: as §1

COR-L23 = tested on: COR-L23
Method in brief: as §1

Calu-6 = tested on: Calu-6
Method in brief: as §1

ChaGo-K-1 = tested on: ChaGo-K-1
Method in brief: as §1

EBC-1 = tested on: EBC-1
Method in brief: as §1

IA-LM = tested on: IA-LM
Method in brief: as §1

NCI-H1299 = tested on: NCI-H1299
Method in brief: as §1

NCI-H1437 = tested on: NCI-H1437
Method in brief: as §1

NCI-H1623 = tested on: NCI-H1623
Method in brief: as §1

NCI-H1651 = tested on: NCI-H1651
Method in brief: as §1

NCI-H1703 = tested on: NCI-H1703
Method in brief: as §1

SK-MES-1 = tested on: SK-MES-1
Method in brief: as §1

SW 1573 = tested on: SW 1573
Method in brief: as §1

SMILES: CC(=O)O[C@@]12CO[C@@H]1C[C@H](O)[C@@]1(C)C(=O)[C@H](O)C3=C(C)[C@@H](OC(=O)[C@H](O)[C@@H](NC(=O)OC(C)(C)C)c4ccccc4)C[C@@](O)([C@@H](OC(=O)c4ccccc4)[C@H]21)C3(C)C [Docetaxel] + COc1cc2c(Oc3ccc(NC(=O)C4(C(=O)Nc5ccc(F)cc5)CC4)cc3F)ccnc2cc1OCCCN1CCOCC1 [Foretinib] (partner 0.25 µM)
- relative viability (A549; first compound 0.0002 µM): 0.957
- relative viability (A549; first compound 0.000632 µM): 0.795
- relative viability (A549; first compound 0.002 µM): 0.0591
- relative viability (A549; first compound 0.006325 µM): 0.0413
- relative viability (A549; first compound 0.02 µM): 0.0241
- relative viability (ABC-1; first compound 0.0002 µM): 1.16
- relative viability (ABC-1; first compound 0.000632 µM): 1.18
- relative viability (ABC-1; first compound 0.002 µM): 0.333
- relative viability (ABC-1; first compound 0.006325 µM): 0.351
- relative viability (ABC-1; first compound 0.02 µM): 0.216
- relative viability (COR-L23; first compound 0.0002 µM): 0.891
- relative viability (COR-L23; first compound 0.000632 µM): 0.896
- relative viability (COR-L23; first compound 0.002 µM): 0.561
- relative viability (COR-L23; first compound 0.006325 µM): 0.173
- relative viability (COR-L23; first compound 0.02 µM): 0.116
- relative viability (Calu-6; first compound 0.0002 µM): 0.897
- relative viability (Calu-6; first compound 0.000632 µM): 0.627
- relative viability (Calu-6; first compound 0.002 µM): 0.165
- relative viability (Calu-6; first compound 0.006325 µM): 0.081
- relative viability (Calu-6; first compound 0.02 µM): 0.0747
- relative viability (ChaGo-K-1; first compound 0.0002 µM): 0.89
- relative viability (ChaGo-K-1; first compound 0.000632 µM): 0.824
- relative viability (ChaGo-K-1; first compound 0.002 µM): 0.439
- relative viability (ChaGo-K-1; first compound 0.006325 µM): 0.329
- relative viability (ChaGo-K-1; first compound 0.02 µM): 0.174
- relative viability (EBC-1; first compound 0.0002 µM): 0.0936
- relative viability (EBC-1; first compound 0.000632 µM): 0.0902
- relative viability (EBC-1; first compound 0.002 µM): 0.0988
- relative viability (EBC-1; first compound 0.006325 µM): 0.0924
- relative viability (EBC-1; first compound 0.02 µM): 0.09
- relative viability (IA-LM; first compound 0.0002 µM): 1.05
- relative viability (IA-LM; first compound 0.000632 µM): 0.386
- relative viability (IA-LM; first compound 0.002 µM): 0.0546
- relative viability (IA-LM; first compound 0.006325 µM): 0.0457
- relative viability (IA-LM; first compound 0.02 µM): 0.0491
- relative viability (NCI-H1299; first compound 0.0002 µM): 1.1
- relative viability (NCI-H1299; first compound 0.000632 µM): 1.14
- relative viability (NCI-H1299; first compound 0.002 µM): 1
- relative viability (NCI-H1299; first compound 0.006325 µM): 0.62
- relative viability (NCI-H1299; first compound 0.02 µM): 0.295
- relative viability (NCI-H1437; first compound 0.0002 µM): 1.12
- relative viability (NCI-H1437; first compound 0.000632 µM): 1.21
- relative viability (NCI-H1437; first compound 0.002 µM): 0.351
- relative viability (NCI-H1437; first compound 0.006325 µM): 0.273
- relative viability (NCI-H1437; first compound 0.02 µM): 0.188
- relative viability (NCI-H1623; first compound 0.0002 µM): 0.869
- relative viability (NCI-H1623; first compound 0.000632 µM): 0.834
- relative viability (NCI-H1623; first compound 0.002 µM): 0.584
- relative viability (NCI-H1623; first compound 0.006325 µM): 0.427
- relative viability (NCI-H1623; first compound 0.02 µM): 0.284
- relative viability (NCI-H1651; first compound 0.0002 µM): 0.795
- relative viability (NCI-H1651; first compound 0.000632 µM): 0.789
- relative viability (NCI-H1651; first compound 0.002 µM): 0.238
- relative viability (NCI-H1651; first compound 0.006325 µM): 0.128
- relative viability (NCI-H1651; first compound 0.02 µM): 0.107
- relative viability (NCI-H1703; first compound 0.000632 µM): 0.351
- relative viability (NCI-H1703; first compound 0.002 µM): 0.341
- relative viability (NCI-H1703; first compound 0.006325 µM): 0.179
- relative viability (NCI-H1703; first compound 0.02 µM): 0.154
- relative viability (SK-MES-1; first compound 0.0002 µM): 0.84
- relative viability (SK-MES-1; first compound 0.000632 µM): 0.923
- relative viability (SK-MES-1; first compound 0.002 µM): 0.508
- relative viability (SK-MES-1; first compound 0.006325 µM): 0.368
- relative viability (SK-MES-1; first compound 0.02 µM): 0.168
- relative viability (SW 1573; first compound 0.0002 µM): 0.719
- relative viability (SW 1573; first compound 0.000632 µM): 1.06
- relative viability (SW 1573; first compound 0.002 µM): 0.342
- relative viability (SW 1573; first compound 0.006325 µM): 0.193
- relative viability (SW 1573; first compound 0.02 µM): 0.2

Reference: the supplement of paper PMC10307832
